The values that follow are results of earlier work, collected in patent publication US8653307B2 (California Institute of Technology, priority 2011, dated 2014).

One data set concerns the target PI3Kα (Homo sapiens, UniProt P42336).
In a further data set the test system is CaCo (human colon). The following applies: CaCo (human colon) cells; read-out: IC50 (cytotoxicity).
For another data set, the system named is LoVo (human colon) cells. The following applies: read-out: IC50 (cytotoxicity).
The subject of data set [1] is MDA-468 breast cancer line. Particulars: read-out: IC50 (cytotoxicity).

PI3Kα, sequence (P42336 whole entry): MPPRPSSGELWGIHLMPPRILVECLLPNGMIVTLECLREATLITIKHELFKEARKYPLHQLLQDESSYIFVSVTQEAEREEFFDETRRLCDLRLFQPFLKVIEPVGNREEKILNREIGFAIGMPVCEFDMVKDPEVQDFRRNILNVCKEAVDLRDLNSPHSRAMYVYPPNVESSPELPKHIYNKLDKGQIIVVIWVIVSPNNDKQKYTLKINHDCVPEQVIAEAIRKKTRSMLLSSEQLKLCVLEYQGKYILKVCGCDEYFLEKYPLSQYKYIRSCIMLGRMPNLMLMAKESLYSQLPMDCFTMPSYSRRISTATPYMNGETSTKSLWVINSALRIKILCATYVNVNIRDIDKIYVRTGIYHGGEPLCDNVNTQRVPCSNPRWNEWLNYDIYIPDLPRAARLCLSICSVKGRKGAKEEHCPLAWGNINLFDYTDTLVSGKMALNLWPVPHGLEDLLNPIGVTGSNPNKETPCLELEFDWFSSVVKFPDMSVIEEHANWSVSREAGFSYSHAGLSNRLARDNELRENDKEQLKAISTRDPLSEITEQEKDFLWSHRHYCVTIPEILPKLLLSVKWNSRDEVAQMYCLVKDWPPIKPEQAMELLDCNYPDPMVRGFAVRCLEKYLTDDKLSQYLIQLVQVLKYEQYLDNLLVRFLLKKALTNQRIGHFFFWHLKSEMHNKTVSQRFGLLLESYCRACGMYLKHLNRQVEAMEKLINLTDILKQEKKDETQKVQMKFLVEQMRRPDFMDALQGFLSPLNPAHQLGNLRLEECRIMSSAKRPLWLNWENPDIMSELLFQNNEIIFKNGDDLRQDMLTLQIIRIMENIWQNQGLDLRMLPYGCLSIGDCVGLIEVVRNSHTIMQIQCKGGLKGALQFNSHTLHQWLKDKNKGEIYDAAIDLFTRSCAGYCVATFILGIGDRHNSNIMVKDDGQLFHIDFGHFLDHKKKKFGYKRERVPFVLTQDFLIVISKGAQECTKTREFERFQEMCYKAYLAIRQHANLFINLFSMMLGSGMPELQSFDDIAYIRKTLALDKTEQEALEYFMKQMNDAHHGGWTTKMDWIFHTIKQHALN
PI3Kα, sequence (P27986 whole entry partner): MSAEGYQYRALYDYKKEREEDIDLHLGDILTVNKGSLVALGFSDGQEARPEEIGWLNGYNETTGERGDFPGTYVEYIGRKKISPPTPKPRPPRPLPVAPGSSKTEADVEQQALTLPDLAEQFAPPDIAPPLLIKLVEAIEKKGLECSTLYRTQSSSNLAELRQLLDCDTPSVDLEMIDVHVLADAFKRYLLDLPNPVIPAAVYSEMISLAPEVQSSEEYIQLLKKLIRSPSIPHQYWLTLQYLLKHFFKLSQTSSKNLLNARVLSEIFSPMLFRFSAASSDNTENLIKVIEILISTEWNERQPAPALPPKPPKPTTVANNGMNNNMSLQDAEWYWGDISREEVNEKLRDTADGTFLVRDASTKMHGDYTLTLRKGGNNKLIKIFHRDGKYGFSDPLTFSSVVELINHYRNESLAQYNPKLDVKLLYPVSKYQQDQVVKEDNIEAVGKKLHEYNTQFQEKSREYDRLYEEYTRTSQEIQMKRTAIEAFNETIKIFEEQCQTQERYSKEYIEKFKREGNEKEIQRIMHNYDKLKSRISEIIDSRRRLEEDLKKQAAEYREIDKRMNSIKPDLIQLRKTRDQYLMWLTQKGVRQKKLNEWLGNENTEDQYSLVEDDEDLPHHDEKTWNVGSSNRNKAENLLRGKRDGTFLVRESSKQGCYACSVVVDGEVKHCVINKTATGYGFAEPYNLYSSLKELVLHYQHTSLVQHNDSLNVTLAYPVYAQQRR

Consider `O=c1cc(N2CCOCC2)oc2c(-c3ccccc3)cccc12` [LY294002], for which the “selectivity among PI3Ks / related enzymes (in words)” value at PI3Kα was “somewhat selective”.

For orientation: IC50 means the concentration that gives 50% inhibition. Take liphagal: the values for the 50% inhibitory concentration (IC50) (with CaCo (human colon); with LoVo (human colon) cells; in data set [1]) were 670 nM, 580 nM and 1580 nM, respectively.
